Data from patent US20170298051A1, “ACTIVATOR OF ADIPONECTIN RECEPTOR” (THE UNIVERSITY OF TOKYO, priority 2013, published 2017).

Assays:
[1] = biological target: T1, AdipoR1 (Homo sapiens, UniProt Q96A54); assay: Measurement of AMPK phosphorylation ability (Assay 1), HEK 293T cells, Western blotting; type: cell-based; parameters: HEK 293T cells (ATCC; CRL-3216, medium; host or cells: HEK 293T; settings: 10 minutes
T1 sequence (Q96A54 1-375): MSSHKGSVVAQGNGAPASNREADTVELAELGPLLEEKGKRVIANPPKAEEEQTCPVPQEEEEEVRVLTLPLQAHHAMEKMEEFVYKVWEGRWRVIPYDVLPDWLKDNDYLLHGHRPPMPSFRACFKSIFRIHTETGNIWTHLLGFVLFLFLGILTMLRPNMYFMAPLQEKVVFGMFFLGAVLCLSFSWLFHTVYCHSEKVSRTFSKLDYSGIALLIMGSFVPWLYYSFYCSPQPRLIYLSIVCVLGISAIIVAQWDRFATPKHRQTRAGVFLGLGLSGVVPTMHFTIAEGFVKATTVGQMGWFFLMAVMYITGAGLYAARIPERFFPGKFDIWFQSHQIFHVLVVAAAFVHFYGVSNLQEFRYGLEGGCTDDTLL
Experimental: The AMPK phosphorylation ability of the respective compounds according to the present invention was measured by using differentiated C2C12 cells or HEK 293T cells.
HEK 293T cells (ATCC; CRL-3216, medium; DMEM, Fetal Bovine Serum (FBS)) were cultured in a 12- or 24-well plate until they reached 100% confluency (37° C., 5% CO2).
After starvation, a test compound listed in Tables 10 and 11 (concentration: 25 μM, 50 μM) was added thereto, and after 10 minutes, the medium was discarded and the plate was frozen with liquid nitrogen.
To the 12- or 24-well cell plate which had been frozen was added 100 or 150 μL of Cell lysis buffer pH 7.4 (50 mM HEPES (pH 7.4), 2 mM sodium orthovanadate, 10 mM sodium pyrophosphate, 10 mM NaF, 2 mM EDTA, 2 mM EGTA, 0.1% (v/v) NP-40, 0.2 mM PMSF), and the cells were scraped off with a cell scraper, suspended and transferred into a micro centrifugal tube. And then, the cells were ultrasonically crushed (1 second×3 times) with a sonicator. Centrifugation was performed at 4° C. at 15,000 rpm for 15 minutes, and the supernatant was recovered into a new tube.
To 100 μL of the supernatant was added 25 μL of 5× sample buffer (280 mM Tris-HCl (pH 6.9), 40% glycerol, 10% (3-mercaptoethanol, 13% SDS, a small amount of bromophenol blue) and mixed together. The rest of the supernatant was used for protein quantification, and the protein concentrations were uniformed by adding 1× sample buffer depending on the concentration of each sample.
An electrophoresis chamber was filled with 1× SDS buffer (25 mM Tris-HCl, 250 mM glycine, 0.1% SDS), and the sample was applied to a well of polyacrylamide gel. Electrophoresis was performed until the bromophenol blue in the sample reached to the bottom of the gel.
A filter paper was soaked in 1× Transfer buffer sufficiently, above which the PVDF membrane and the gel after electrophoresis were stacked in this order, and thereabove a filter paper which had been soaked in 1× Transfer buffer sufficiently was further stacked, from which an air was removed and the resultant was set in semi-dry type transfer apparatus and transferred (7V, 35 minutes).
An unnecessary portion of the blotted membrane was cutoff, and the rest was immediately soaked in blocking buffer (5% skimmed milk in Rinse buffer), and shaken at room temperature at 40 rpm for 3 hours.
After blocking, the membrane was transferred into Rinse buffer, and washed at room temperature for 10 minutes while shaking. The membrane was soaked in a primary antibody solution (AMPK alpha Antibody (Cell signaling; #2532) 1/1,000 in Rinse buffer, Phospho-AMPK alpha (Thr172) (40H9) antibody (Cell signaling; #2535) 1/1,000 in Rinse buffer), and shaken at 4° C. at 40 rpm overnight.
The membrane was soaked in a secondary antibody solution (goat anti-rabbit IgG-HRP Antibody (Santa Cruz; sc-2030) 1/2,000 in Rinse buffer), and shaken at room temperature at 40 rpm for 1 hour.
After the membrane was washed for 45 minutes in the same way as after the primary antibody reaction, the membrane was soaked in a chemiluminescent reaction solution (ECL Western Blotting Detection Reagents, GE Healthcare) for about 1 minute. An excess of the reaction solution was removed, and then the membranes were arranged on a transparent film and sandwiched with it, with which an X-ray film was exposed in a darkroom (for about several seconds to 60 seconds) to develop the film.
The X-ray film was scanned to take the image, for which the band was measured by using the image analysis software “Image J” to determine the respective amounts of pAMPK and AMPK.

[2] = biological target: T1, AdipoR1; assay: Measurement of AMPK phosphorylation ability (Assay 2), HEK 293T cells with unrelated or AdipoR1 siRNA; type: cell-based; parameters: HEK 293T cells (ATCC; CRL-3216, medium; host or cells: HEK 293T
Experimental: HEK 293T cells (medium; DMEM, 10% FBS) were cultured in a 24-well plate until they reached 60% confluency (37° C., 5% CO2).
First, 1 μL of Lipofectamine RNAiMAX and 50 μL of OPTI-MEM were mixed, and then 5 μM siRNA (sense siRNA sequence: […]tt (SEQ ID NO: 1)) and 50 μL of OPTI-MEM were mixed and the resultants were left to stand at room temperature for 5 minutes. And then, the 1 μL Lipofectamine RNAiMAX/50 μL OPTI-MEM and the 5 μM siRNA/50 μL OPTI-MEM were mixed, and the resultant was left to stand at room temperature for 10 minutes, which was added to the cells.
After 5 minutes, the medium (DMEM, 10% FBS) was replaced, and after starvation on the next day, a test compound listed in Tables 10 and 11 was added thereto. After 10 minutes, the medium was discarded and the plate was frozen with liquid nitrogen.
The respective amounts of pAMPK and AMPK were determined in the same way as in the above Assay 1.

| SMILES | pAMPK/AMPK (%) ([1]; 25 μM) | pAMPK/AMPK (%) ([1]; 50 μM) | pAMPK/AMPK (ratio) siRNA, AdipoR1 siRNA [2] [ratio] | pAMPK/AMPK (ratio) siRNA, unrelated siRNA [2] [ratio] |
| --- | --- | --- | --- | --- |
| O=C(COc1ccc(C(=O)c2ccc(Cl)cc2)cc1)NC1CCN(Cc2ccccc2)CC1 [Compound 11] | 83.12 | 102.94 | 3.75 | 2.58 |
| O=C(COc1ccc(C(=O)c2ccccc2)cc1)NC1CCN(Cc2ccc(Cl)cc2)CC1 [Compound 12] | 106.36 | 82.93 | 2.47 | 2.51 |
| COc1cc(C(C)=O)ccc1OCC(=O)NC1CCN(Cc2ccc(Cl)c(Cl)c2)CC1 [Compound 15] | 88.71 | 88.18 | 3.49 | 3.27 |
| NC(=O)c1ccc(OCC(=O)NC2CCN(Cc3ccc(Cl)c(Cl)c3)CC2)cc1 [Compound 19] | 83.61 | 95.02 | 3.75 | 3.88 |
| NC(=O)c1ccc(OCC(=O)NC2CCN(Cc3ccc(Br)cc3)CC2)cc1 [Compound 21] | 81.11 | 83.12 | 1.92 | 2.34 |
| Cc1ccc(OCC(=O)NC2CCN(Cc3ccc(Cl)c(Cl)c3)CC2)cc1 [Compound 30] | 122.70 | 89.75 | 2.35 | 2.49 |
| CCc1ccc(OCC(=O)NC2CCN(C(C)c3ccccc3)CC2)cc1 (centres unmarked) [Compound 31] | 80.60 | 80.60 | 2.61 | 3.17 |
| O=C(COc1ccc(F)cc1)NC1CCN(Cc2ccc(Cl)c(Cl)c2)CC1 [Compound 32] | 88.09 | 91.40 | 4.14 | 3.38 |
| O=C(COc1ccc(Cl)cc1)NC1CCN(Cc2ccc(Cl)c(Cl)c2)CC1 [Compound 33] | 106.31 | 84.10 | 2.63 | 2.88 |
| O=C(COc1ccc(C(F)(F)F)cc1)NC1CCN(C(=O)c2ccccc2F)CC1 [Compound 34] | 80.64 | 80.50 | 2.01 | 2.32 |
| COc1ccc(CN2CCC(NC(=O)COc3ccc(C(F)(F)F)cc3)CC2)cc1F [Compound 35] | 80.77 | 83.74 | 2.01 | 3.38 |
| O=C(COc1ccc(Oc2ccccc2)cc1)NC1CCN(Cc2ccccc2)CC1 [Compound 36] | 80.42 | 84.19 | 2.56 | 2.52 |
| COc1ccc(OCC(=O)NC2CCN(Cc3ccc(Cl)c(Cl)c3)CC2)cc1 [Compound 37] | 83.83 | 80.12 | 2.69 | 3.11 |
| COc1ccc(CN2CCN(C(=O)CCNC(=O)c3ccc(Br)cc3)CC2)cc1OC [Compound 59] | 74.09 | 78.14 |  |  |
| COc1ccc(CN2CCN(C(=O)CCNC(=O)c3ccc(Cl)cc3)CC2)c(OC)c1OC [Compound 60] | 34.44 | 76.81 |  |  |
| CCOc1ccc(CN2CCN(C(=O)CCNC(=O)c3ccc(F)cc3Cl)CC2)cc1 [Compound 61] | 78.20 | 76.51 |  |  |
| COc1ccc(CN2CCN(C(=O)CCNC(=O)c3ccc(F)cc3F)CC2)cc1OC [Compound 62] | 72.75 | 80.92 |  |  |
| Cc1ccccc1CN1CCN(C(=O)CCNC(=O)c2ccc([N+](=O)[O-])cc2)CC1 [Compound 63] | 65.40 | 68.22 |  |  |
| COc1ccc(CN2CCN(C(=O)CCNC(=O)c3ccc([N+](=O)[O-])cc3)CC2)cc1 [Compound 65] | 62.79 | 69.84 |  |  |
| COc1ccc(OC)c(CN2CCN(C(=O)CCNC(=O)c3ccc([N+](=O)[O-])cc3)CC2)c1 [Compound 66] | 43.00 | 55.80 |  |  |
| O=C(NCCC(=O)N1CCN(Cc2cccc(C(F)(F)F)c2)CC1)c1ccc([N+](=O)[O-])cc1 [Compound 67] | 70.98 | 70.70 |  |  |
| COc1ccc(CN2CCN(C(=O)CCNC(=O)c3ccc([N+](=O)[O-])cc3)CC2)cc1F [Compound 68] | 53.92 | 45.94 |  |  |
| COc1ccccc1CN1CCN(C(=O)CCNC(=O)c2ccc3ccccc3c2)CC1 [Compound 71] | 78.18 | 65.40 |  |  |
| COc1cccc(C(=O)N2CCN(CCC(=O)NC3CC3)CC2)c1 [Compound 72] | 42.05 | 46.92 |  |  |
